Test results: the supplement of paper PMC10307832

How the values were obtained:
Experiment in all cases: relative viability (nuclei count vs DMSO), 5 days (fraction); higher = more cells survive
NCI-H322M = tested on: NCI-H322M
Procedure, shortened: (§1)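 Values are medians from duplicate plates. Each reflects relative viability, defined as the nuclei count of treated wells over that of vehicle wells. Lung cancer cell lines in 1536-well plates were pin-tool dosed one day after seeding with one drug alone or with a fixed anchor-drug dose plus five library-drug doses (not always all listed) in √10 steps, then fixed, stained and imaged at 4× after 5 days.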

CAL-12T = tested on: CAL-12T
Procedure, shortened: as §1

H3255 = tested on: H3255
Procedure, shortened: as §1

NCI-H1755 = tested on: NCI-H1755
Procedure, shortened: as §1

NCI-H661 = tested on: NCI-H661
Procedure, shortened: as §1

LK-2 = tested on: LK-2
Procedure, shortened: as §1

NCI-H2405 = tested on: NCI-H2405
Procedure, shortened: as §1

NCI-H520 = tested on: NCI-H520
Procedure, shortened: as §1

HCC-15 = tested on: HCC-15
Procedure, shortened: as §1

RERF-LC-KJ = tested on: RERF-LC-KJ
Procedure, shortened: as §1

NCI-H2228 = tested on: NCI-H2228
Procedure, shortened: as §1

CCN(CC)CCCCNc1ncc2cc(-c3cc(OC)cc(OC)c3)c(NC(=O)NC(C)(C)C)nc2n1 + Cc1nc(Nc2ncc(C(=O)Nc3c(C)cccc3Cl)s2)cc(N2CCN(CCO)CC2)n1 [Dasatinib] (partner 0.075 µM)
relative viability (NCI-H322M; first compound 0.01 µM): 0.242 | relative viability (NCI-H322M; first compound 0.03162 µM): 0.246 | relative viability (NCI-H322M; first compound 0.1 µM): 0.244 | relative viability (NCI-H322M; first compound 0.3162 µM): 0.257 | relative viability (NCI-H322M; first compound 1 µM): 0.237 | relative viability (CAL-12T; first compound 0.01 µM): 0.389 | relative viability (CAL-12T; first compound 0.03162 µM): 0.525 | relative viability (CAL-12T; first compound 0.1 µM): 0.435 | relative viability (CAL-12T; first compound 0.3162 µM): 0.371 | relative viability (CAL-12T; first compound 1 µM): 0.417 | relative viability (H3255; first compound 0.01 µM): 0.342 | relative viability (H3255; first compound 0.03162 µM): 0.305 | relative viability (H3255; first compound 0.1 µM): 0.478 | relative viability (H3255; first compound 0.3162 µM): 0.594 | relative viability (H3255; first compound 1 µM): 0.339 | relative viability (NCI-H1755; first compound 0.01 µM): 0.394 | relative viability (NCI-H1755; first compound 0.03162 µM): 0.464 | relative viability (NCI-H1755; first compound 0.1 µM): 0.518 | relative viability (NCI-H1755; first compound 0.3162 µM): 0.621 | relative viability (NCI-H1755; first compound 1 µM): 0.207 | relative viability (NCI-H661; first compound 0.01 µM): 0.906 | relative viability (NCI-H661; first compound 0.03162 µM): 0.841 | relative viability (NCI-H661; first compound 0.1 µM): 1.1 | relative viability (NCI-H661; first compound 0.3162 µM): 1.03 | relative viability (NCI-H661; first compound 1 µM): 0.644 | relative viability (LK-2; first compound 0.01 µM): 0.29 | relative viability (LK-2; first compound 0.03162 µM): 0.267 | relative viability (LK-2; first compound 0.1 µM): 0.254 | relative viability (LK-2; first compound 0.3162 µM): 0.188 | relative viability (LK-2; first compound 1 µM): 0.212 | relative viability (NCI-H2405; first compound 0.01 µM): 0.193 | relative viability (NCI-H2405; first compound 0.03162 µM): 0.202 | relative viability (NCI-H2405; first compound 0.1 µM): 0.466 | relative viability (NCI-H2405; first compound 0.3162 µM): 0.205 | relative viability (NCI-H2405; first compound 1 µM): 0.186 | relative viability (NCI-H520; first compound 0.01 µM): 0.182 | relative viability (NCI-H520; first compound 0.03162 µM): 0.2 | relative viability (NCI-H520; first compound 0.1 µM): 0.216 | relative viability (NCI-H520; first compound 0.3162 µM): 0.159 | relative viability (NCI-H520; first compound 1 µM): 0.162 | relative viability (HCC-15; first compound 0.01 µM): 0.613 | relative viability (HCC-15; first compound 0.03162 µM): 0.7 | relative viability (HCC-15; first compound 0.1 µM): 0.681 | relative viability (HCC-15; first compound 0.3162 µM): 0.748 | relative viability (HCC-15; first compound 1 µM): 0.554 | relative viability (RERF-LC-KJ; first compound 0.01 µM): 0.783 | relative viability (RERF-LC-KJ; first compound 0.03162 µM): 1 | relative viability (RERF-LC-KJ; first compound 0.1 µM): 0.843 | relative viability (RERF-LC-KJ; first compound 0.3162 µM): 0.947 | relative viability (RERF-LC-KJ; first compound 1 µM): 0.738 | relative viability (NCI-H2228; first compound 0.01 µM): 0.586 | relative viability (NCI-H2228; first compound 0.03162 µM): 0.589 | relative viability (NCI-H2228; first compound 0.1 µM): 0.793 | relative viability (NCI-H2228; first compound 0.3162 µM): 0.536 | relative viability (NCI-H2228; first compound 1 µM): 0.431
